# Test results as given in patent US20230093099A1, “COMPOUNDS AND METHODS OF TREATING CANCERS” (CULLGEN (SHANGHAI), INC., priority 2019, published 2023).
# Tested on: RS4;11 cells
# Experiment: Cell viability assay (CellTiter-Glo) in RS4;11 cells
# Format: cell-based
# Details: Homo sapiens, 72 h; RS4;11 ALL cells treated for three days; read-out: cell viability inhibition IC50
# Method in brief: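 Three-day compound treatment of RS4;11 ALL cells (5000/well, 3-fold dilution series of 8 or 12 points), with IC50 from a nonlinear least-squares fit to CellTiter-Glo viability data.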
row,IC50 [µM],Compound
1,< 0.1,"Cc1cnc(Nc2ccc(N3CCN(CC(=O)NCCOCCOCCOCCOCCOCCNc4cccc5c4C(=O)N(C4CCC(=O)NC4=O)C5=O)CC3)cc2)nc1Nc1cccc(S(=O)(=O)NC(C)(C)C)c1 (stereo not shown) [JA-224, 2-(4-(4-((4-((3-(N-(tert-butyl)sulfamoyl)phenyl)amino)-5-methylpyrimidin-2-yl)amino)phenyl)piperazin-1-yl)-N-(17-((2-(2,6-dioxopiperidin-3-yl)-1,3-dioxoisoindolin-4-yl)amino)-3,6,9,12,15-pentaoxaheptadecyl)acetamide]"

# Same assay, conditions: Homo sapiens, 72 h; RS4;11 cells; cell viability, 3 days, CellTiter-Glo; read-out: IC50
row,IC50 [µM],Compound
1,0.105,"Cc1cnc(Nc2ccc(N3CCN(CC(=O)NCCOCCOCCOCCOCCOCCNc4cccc5c4C(=O)N(C4CCC(=O)NC4=O)C5=O)CC3)cc2)nc1Nc1cccc(S(=O)(=O)NC(C)(C)C)c1 (stereo not shown) [JA-224, 2-(4-(4-((4-((3-(N-(tert-butyl)sulfamoyl)phenyl)amino)-5-methylpyrimidin-2-yl)amino)phenyl)piperazin-1-yl)-N-(17-((2-(2,6-dioxopiperidin-3-yl)-1,3-dioxoisoindolin-4-yl)amino)-3,6,9,12,15-pentaoxaheptadecyl)acetamide]"
2,4.7,"CS(=O)(=O)c1ccc(-c2cccc3nc(Nc4ccc(N5CCN(C(=O)CCNc6cccc7c6C(=O)N(C6CCC(=O)NC6=O)C7=O)CC5)cc4)nn23)cc1 (stereo not shown) [JA-012, 2-(2,6-Dioxo-piperidin-3-yl)-4-[3-(4-{4-[5-(4-methanesulfonyl-phenyl)-[1,2,4]triazolo[1,5-a]pyridin-2-ylamino]-phenyl}-piperazin-1-yl)-3-oxo-propylamino]-isoindole-1,3-dione]"
3,> 10,"Cc1cnc(Nc2ccc(N3CCN(C(=O)CCOCCC(=O)N[C@H](C(=O)N4C[C@H](O)C[C@H]4C(=O)NCc4ccc(-c5scnc5C)cc4)C(C)(C)C)CC3)cc2)nc1Nc1cccc(S(=O)(=O)NC(C)(C)C)c1 [JA-031, (2S,4R)-1-((S)-2-(3-(3-(4-(4-((4-((3-(N-(tert-Butyl)sulfamoyl)phenyl)amino)-5-methylpyrimidin-2-yl)amino)phenyl)piperazin-1-yl)-3-oxopropoxy)propanamido)-3,3-dimethylbutanoyl)-4-hydroxy-N-(4-(4-methylthiazol-5-yl)benzyl)pyrrolidine-2-carboxamide]"
4,> 10,"Cc1cnc(Nc2ccc(N3CCN(CC(=O)NCCCCCCCCCCC(=O)N[C@H](C(=O)N4C[C@H](O)C[C@H]4C(=O)NCc4ccc(-c5scnc5C)cc4)C(C)(C)C)CC3)cc2)nc1Nc1cccc(S(=O)(=O)NC(C)(C)C)c1 [JA-106, (2S,4R)-1-((S)-2-(11-(2-(4-(4-((4-((3-(N-(tert-Butyl)sulfamoyl)phenyl)amino)-5-methylpyrimidin-2-yl)amino)phenyl)piperazin-1-yl)acetamido)undecanamido)-3,3-dimethylbutanoyl)-4-hydroxy-N-(4-(4-methylthiazol-5-yl)benzyl)pyrrolidine-2-carboxamide]"
5,> 10,"CS(=O)(=O)c1ccc(-c2cccc3nc(Nc4ccc(N5CCN(C(=O)CNc6ccc7c(c6)C(=O)N(C6CCC(=O)NC6=O)C7=O)CC5)cc4)nn23)cc1 (stereo not shown) [JA-194, 2-(2,6-Dioxopiperidin-3-yl)-5-((2-(4-(4-((5-(4-(methylsulfonyl)phenyl)-[1,2,4]triazolo[1,5-a]pyridin-2-yl)amino)phenyl)piperazin-1-yl)-2-oxoethyl)amino)isoindoline-1,3-dione]"
6,1.9,"CS(=O)(=O)c1ccc(-c2cccc3nc(Nc4ccc(N5CCN(CCCCCCOc6ccc7c(c6)C(=O)N(C6CCC(=O)NC6=O)C7=O)CC5)cc4)nn23)cc1 (stereo not shown) [JA-256, 2-(2,6-Dioxopiperidin-3-yl)-5-((6-(4-(4-((5-(4-(methylsulfonyl)phenyl)-[1,2,4]triazolo[1,5-a]pyridin-2-yl)amino)phenyl)piperazin-1-yl)hexyl)oxy)isoindoline-1,3-dione]"
7,> 10,"Cc1ncsc1-c1ccc(CNC(=O)[C@@H]2C[C@@H](O)CN2C(=O)[C@@H](NC(=O)CCOCCOCCOCCOCCOCCNC(=O)CN2CCN(c3ccc(Nc4nc5cccc(-c6ccc(S(C)(=O)=O)cc6)n5n4)cc3)CC2)C(C)(C)C)cc1 [JA-138, (2S,4R)-1-((S)-23-(tert-Butyl)-1-(4-(4-((5-(4-(methylsulfonyl)phenyl)-[1,2,4]triazolo[1,5-a]pyridin-2-yl)amino)phenyl)piperazin-1-yl)-2,21-dioxo-6,9,12,15,18-pentaoxa-3,22-diazatetracosan-24-oyl)-4-hydroxy-N-(4-(4-methylthiazol-5-yl)benzyl)pyrrolidine-2-carboxamide]"
8,0.121,"Cc1cnc(Nc2ccc(N3CCN(CC(=O)NCCCCCCCNc4cccc5c4C(=O)N(C4CCC(=O)NC4=O)C5=O)CC3)cc2)nc1Nc1cccc(S(=O)(=O)NC(C)(C)C)c1 (stereo not shown) [JA-095, 2-(4-(4-((4-((3-(N-(tert-Butyl)sulfamoyl)phenyl)amino)-5-methylpyrimidin-2-yl)amino)phenyl)piperazin-1-yl)-N-(7-((2-(2,6-dioxopiperidin-3-yl)-1,3-dioxoisoindolin-4-yl)amino)heptyl)acetamide]"
9,> 10,"Cc1cnc(Nc2ccc(N3CCN(C(=O)CCCCCNc4ccc5c(c4)C(=O)N(C4CCC(=O)NC4=O)C5=O)CC3)cc2)nc1Nc1cccc(S(=O)(=O)NC(C)(C)C)c1 (stereo not shown) [JA-229, N-(tert-butyl)-3-((2-((4-(4-(6-((2-(2,6-dioxopiperidin-3-yl)-1,3-dioxoisoindolin-5-yl)amino)hexanoyl)piperazin-1-yl)phenyl)amino)-5-methylpyrimidin-4-yl)amino)benzenesulfonamide]"
10,7.54,"O=C1CCC(N2C(=O)c3cccc(NCCOCCOCCOCCOCCOCCC(=O)N4CCC(n5cc(-c6cnc7cccc(-c8cc(F)c(CN9CCOCC9)c(F)c8)c7n6)cn5)CC4)c3C2=O)C(=O)N1 (stereo not shown) [JA-043, 4-[2-[2-[2-[2-[2-[3-[4-[4-[8-[3,5-Difluoro-4-(morpholinomethyl)phenyl]quinoxalin-2-yl]pyrazol-1-yl]-1-piperidyl]-3-oxo-propoxy]ethoxy]ethoxy]ethoxy]ethoxy]ethylamino]-2-(2,6-dioxo-3-piperidyl)isoindoline-1,3-dione]"
11,0.157,"O=C1CCC(N2Cc3cc(C#CCCCCC(=O)N4CCC(n5cc(-c6cnc7cccc(-c8cc(F)c(CN9CCOCC9)c(F)c8)c7n6)cn5)CC4)ccc3C2=O)C(=O)N1 (stereo not shown) [JA-271, 3-(5-(7-(4-(4-(8-(3,5-Difluoro-4-(morpholinomethyl)phenyl)quinoxalin-2-yl)-1H-pyrazol-1-yl)piperidin-1-yl)-7-oxohept-1-yn-1-yl)-1-oxoisoindolin-2-yl)piperidine-2,6-dione]"
12,> 10,"Cc1ncsc1-c1ccc(CNC(=O)[C@@H]2C[C@@H](O)CN2C(=O)[C@@H](NC(=O)COCCOCCOCC(=O)N2CCC(n3cc(-c4cnc5cccc(-c6cc(F)c(CN7CCOCC7)c(F)c6)c5n4)cn3)CC2)C(C)(C)C)cc1 [JA-053, (2S,4R)-1-[(2S)-2-[[2-[2-[2-[2-[4-[4-[8-[3,5-Difluoro-4-(morpholinomethyl)phenyl]quinoxalin-2-yl]pyrazol-1-yl]-1-piperidyl]-2-oxo-ethoxy]ethoxy]ethoxy]acetyl]amino]-3,3-dimethyl-butanoyl]-4-hydroxy-N-[[4-(4-methylthiazol-5-yl)phenyl]methyl]pyrrolidine-2-carboxamide]"
13,> 10,"CS(=O)(=O)c1ccc(-c2cccc3nc(Nc4ccc(N5CCN(CC(=O)NCCCNc6cccc7c6C(=O)N(C6CCC(=O)NC6=O)C7=O)CC5)cc4)nn23)cc1 (stereo not shown) [JA-111, N-(3-((2-(2,6-Dioxopiperidin-3-yl)-1,3-dioxoisoindolin-4-yl)amino)propyl)-2-(4-(4-((5-(4-(methylsulfonyl)phenyl)-[1,2,4]triazolo[1,5-a]pyridin-2-yl)amino)phenyl)piperazin-1-yl)acetamide]"
14,0.543,"Cc1cnc(Nc2ccc(N3CCN(CC(=O)NCCNc4ccc5c(c4)C(=O)N(C4CCC(=O)NC4=O)C5=O)CC3)cc2)nc1Nc1cccc(S(=O)(=O)NC(C)(C)C)c1 (stereo not shown) [JA-242, 2-(4-(4-((4-((3-(N-(tert-butyl)sulfamoyl)phenyl)amino)-5-methylpyrimidin-2-yl)amino)phenyl)piperazin-1-yl)-N-(2-((2-(2,6-dioxopiperidin-3-yl)-1,3-dioxoisoindolin-5-yl)amino)ethyl)acetamide]"
15,0.638,"Cc1cnc(Nc2ccc(N3CCN(CC(=O)NCCOCCOCCOCCOCCNc4ccc5c(c4)C(=O)N(C4CCC(=O)NC4=O)C5=O)CC3)cc2)nc1Nc1cccc(S(=O)(=O)NC(C)(C)C)c1 (stereo not shown) [JA-240, 2-(4-(4-((4-((3-(N-(tert-butyl)sulfamoyl)phenyl)amino)-5-methylpyrimidin-2-yl)amino)phenyl)piperazin-1-yl)-N-(14-((2-(2,6-dioxopiperidin-3-yl)-1,3-dioxoisoindolin-5-yl)amino)-3,6,9,12-tetraoxatetradecyl)acetamide]"
16,3.85,"Cc1ncsc1-c1ccc(CNC(=O)[C@@H]2C[C@@H](O)CN2C(=O)[C@@H](NC(=O)CCCCCCCCC(=O)N2CCN(c3ccc(Nc4nc5cccc(-c6ccc(S(C)(=O)=O)cc6)n5n4)cc3)CC2)C(C)(C)C)cc1 [JA-067, (2S,4R)-1-((S)-3,3-Dimethyl-2-(10-(4-(4-((5-(4-(methylsulfonyl)phenyl)-[1,2,4]triazolo[1,5-a]pyridin-2-yl)amino)phenyl)piperazin-1-yl)-10-oxodecanamido)butanoyl)-4-hydroxy-N-(4-(4-methylthiazol-5-yl)benzyl)pyrrolidine-2-carboxamide]"

row,Compound,IC50 [µM]
1,"Cc1cnc(Nc2ccc(N3CCN(CC(=O)NCC(=O)N[C@H](C(=O)N4C[C@H](O)C[C@H]4C(=O)NCc4ccc(-c5scnc5C)cc4)C(C)(C)C)CC3)cc2)nc1Nc1cccc(S(=O)(=O)NC(C)(C)C)c1 [JA-097, (2S,4R)-1-((S)-2-(2-(2-(4-(4-((4-((3-(N-(tert-Butyl)sulfamoyl)phenyl)amino)-5-methylpyrimidin-2-yl)amino)phenyl)piperazin-1-yl)acetamido)acetamido)-3,3-dimethylbutanoyl)-4-hydroxy-N-(4-(4-methylthiazol-5-yl)benzyl)pyrrolidine-2-carboxamide]",> 10
2,"Cc1ncsc1-c1ccc(CNC(=O)[C@@H]2C[C@@H](O)CN2C(=O)[C@@H](NC(=O)CNC(=O)CN2CCC(n3cc(-c4cnc5cccc(-c6cc(F)c(CN7CCOCC7)c(F)c6)c5n4)cn3)CC2)C(C)(C)C)cc1 [JA-158, (2S,4R)-1-((S)-2-(2-(2-(4-(4-(8-(3,5-Difluoro-4-(morpholinomethyl)phenyl)quinoxalin-2-yl)-1H-pyrazol-1-yl)piperidin-1-yl)acetamido)acetamido)-3,3-dimethylbutanoyl)-4-hydroxy-N-(4-(4-methylthiazol-5-yl)benzyl)pyrrolidine-2-carboxamide]",> 10
